In patent US9676786B2, “Pharmacologically active compounds” (The University of Liverpool, priority 2013, dated 2017):
Like-named read-outs stand apart in the source and are kept apart here.

How the values were obtained:
[1] = tested on: neuropathic rats; assay: Mechanical hyperalgesia, paw withdrawal thresholds in neuropathic rats (partial sciatic nerve ligation); type: in vivo, rat; settings: neuropathic Wistar rats, p.o.; peak occurred at 3h
From the text: (§1) The wound was closed with skin clips.
(§2) Control animals received vehicle alone.

[2] = tested on: neuropathic rats; assay: Cold sensitivity (10° C. cold plate), paw withdrawal latencies in neuropathic rats; type: in vivo, rat; settings: neuropathic Wistar rats, p.o.; peak occurred at 1h
From the text: as §1, §2

[3] = Pharmacokinetic evaluation, oral dosing in rats; type: in vivo, rat; settings: 10 mg/kg oral; for AUC(0-inf) / half-life / Cmax / Tmax: rat, plasma, po, 10 mg/kg; for Cmax: read-out: Cmax; for Tmax: read-out: Tmax
Experimental: • Dose—10 mg/kg (5 mL/kg) • Route—ORAL • Vehicles—10% DMSO/10% Solutol and SSV • Time—24 h • Procedure Number—6 Vehicles • 10% DMSO/10% Solutol/80% Saline • 1) Compound was weighed out into a clean vial. • 2) DMSO was added into the vial; the vial was vortexed and sonicated it for 15 min. • 3) Solutol HS 15 was heated at 50° C. until a liquid formed, and then was added into the vial. The vial was vortexed for 1-2 min. • 4) 0.9% Saline solution was added to the vial. The vial was vortexed and then sonicated for 10 min. Standard Suspension Vehicle (SSV) • 1) A solution of SSV was made using 0.5% Sodium carboxymethylcellulose, 0.5% Benzyl alcohol, 0.4% Tween80 and 98.6% saline (0.9%) • 2) Compound was weighed out into a clean vial • 3) SSV solution was added into the vial; the vial was vortexed and sonicated it for 15 min. Fasted Rats
Fasted rats were fasted overnight and given access to food immediately after dosing.
• 1) Rats were manually restrained and given a 10 mg/kg oral dose of compound at 5 mL/kg. • 2) At designated time points (0.25, 0.5, 1, 3, 5, 7 and 24 hours) the rats were anaesthetised using isoflurane. • 3) Approximately 300 μL of blood was taken from the tail vein using a 1.5 inch needle treated with heparin and collected into 1.5 mL eppendorf tubes. • 4) After sampling, pressure was applied to the puncture until bleeding ceased. The animals were returned to their cages and given free access to food and water. • 5) Blood samples were stored on ice and then centrifuged at 13,000 rpm for 15 min to separate the plasma. • 6) 150 μL of the plasma was treated with 300 μL of ACN:MeOH (1:1) solution containing the internal standard. The samples were then centrifuged for a further 15 min at 13,000 rpm. • 7) 200 μL of the supernatant was collected and placed in LC-MS vials for analysis. All samples were stored at −80° C. Results

[4] = tested on: neuropathic rats; assay: Comparison of LT-01-25 and LT-01-89: ipsilateral paw withdrawal thresholds to mechanical pressure in neuropathic rats; type: in vivo, rat; settings: 10 mg/kg p.o., male SD rats
Experimental: Male, SD rats. n=6/group. Vehicle: 10% DMSO/10% Solutol HS15/80% saline.
• 1) In rats a peripheral neuropathy was induced by partial ligation of the sciatic nerve in one hind limb. • 2) Two weeks (12-15 days) after induction of peripheral neuropathy stable mechanical (tactile) allodynia was induced in the hind paw of the affected limb. • 3) Five treatment groups of male SD rats (n=8) were used: vehicle control (drug formulation), 3 drug doses, and a positive control, lamotrigine (30 mg/kg). Animals were randomized between groups and the experiment was carried out using blinded conditions. The study was split with n=4/group in each experiment. • 4) Baseline behavioural measurements were obtained prior to surgery and at intervals post-surgery. Predose behavioural measurements were obtained by measuring paw withdrawal thresholds 12-15 days following nerve ligation. • 5) Compound efficacy was determined by measuring paw withdrawal thresholds at specified intervals following vehicle/compound treatment. Methods Animals
Animals were maintained in a controlled lighting environment and given food and water ad libitum. Male Sprague Dawley rats (120-140 g at time of surgery) were used.
Rats were fasted overnight with free access to water and fed 4 hours post-dose.
Tests compounds as well as Lamotrigine (30 mg/kg, volume: 10 ml/kg)) were prepared in the designated formulation (10% DMSO, Solutol HS 15/80% and 0.9% saline for p.o. administration) and administered via the chosen route.
Rats were anaesthetised (isoflurane/O2 inhalation), the left sciatic nerve was exposed at mid-thigh level through a small incision and ⅓ to ½ of the nerve thickness tightly ligated within a 7.0 silk suture. The wound was closed with skin clips. Animals were allowed to recover and compounds administered 12-15 days following surgery.
Compound/vehicle were administered at specified doses. Following treatment, further readings were taken; 1, 3, 6 and 24 hour after p.o. administration.

[5] = tested on: neuropathic rats; assay: Comparison of LT-01-25 and LT-01-89: ipsilateral withdrawal latencies to cold (10° C.) stimulus in neuropathic rats; type: in vivo, rat; settings: 10 mg/kg p.o., male SD rats
[6] = Rat microsomal stability; type: in vitro ADME; settings: for half-life at 1 μM: rat, rat microsomes
From the text: Rat and human microsomal stability data was obtained using well established protocols known to those skilled in the art.

[7] = 10% DMSO/10% Solutol/80% Saline, fasted rats
[8] = 10% DMSO/10% Solutol/80% Saline, non-fasted rats

CC(C)c1cc(C(=O)N2CCOCC2)cc(C(C)C)c1O [LT-01-25, (4-(hydroxy)-3,5-diisopropylphenyl)(morpholino)methanone]
Peak reversal, mechanical (paw pressure) [1]: 90% | Peak reversal, cold (10° C. cold plate) [2]: 93% | CL (area)/kg [3, 7]: 19.532 mL/min/kg | Vd (area)/kg [3, 7]: 2.3006 L/kg | CL (area)/kg [3, 8]: 8.423 mL/min/kg | Vd (area)/kg [3, 8]: 0.9737 L/kg | CL (area)/kg ([3]; SSV, fasted rats): 9.193 mL/min/kg | Vd (area)/kg ([3]; SSV, fasted rats): 1.1426 L/kg | CL (area)/kg ([3]; SSV, non-fasted rats): 8.662 mL/min/kg | Half Life ([3]; SSV, non-fasted rats): 3.6 h | Vd (area)/kg ([3]; SSV, non-fasted rats): 2.7109 L/kg | AUC(0-inf) [3, 7]: 8530 ng·h/mL | half-life [3, 7]: 1.4 h | Cmax [3, 7]: 2420 ng/mL | Tmax [3, 7]: 0.3 h | AUC(0-inf) [3, 8]: 20400 ng·h/mL | half-life [3, 8]: 1.4 h | Cmax [3, 8]: 1710 ng/mL | Tmax [3, 8]: 4 h | AUC(0-inf) ([3]; SSV, fasted rats): 18100 ng·h/mL | half-life ([3]; SSV, fasted rats): 1.4 h | Cmax ([3]; SSV, fasted rats): 2590 ng/mL | Tmax ([3]; SSV, fasted rats): 1 h | AUC(0-inf) ([3]; SSV, non-fasted rats): 19000 ng·h/mL | half-life ([3]; SSV, non-fasted rats): 3.62 h | Cmax ([3]; SSV, non-fasted rats): 2120 ng/mL | Tmax ([3]; SSV, non-fasted rats): 0.25 h | Mechanical pressure Percentage reversal of predose hyperalgesia ([4]; 1 hr): 1 hr - - - 80% | Mechanical pressure Percentage reversal of predose hyperalgesia ([4]; 3 hr): 3 hr - - - 90% | Mechanical pressure Percentage reversal of predose hyperalgesia ([4]; 6 hr): 6 hr - - - 40% | Cold (10° C.) Stimulus Percentage reversal of predose Hyperalgesia ([5]; 1 hr): 1 hr - - - 85% | Cold (10° C.) Stimulus Percentage reversal of predose Hyperalgesia ([5]; 3 hr): 3 hr - - - 35% | Cold (10° C.) Stimulus Percentage reversal of predose Hyperalgesia ([5]; 6 hr): 6 hr - - - 35% | Cl ([6]; Rat microsomes, 1 μM): 3.35 mL/min/kg | Cl (values marked *) ([6]; Rat microsomes, 1 μM, second set marked *): 1.07 mL/min/kg (Cl)* | half-life at 1 μM ([6]; read-out: t1/2): 12.3 h | half-life at 1 μM ([6]; second set marked *, read-out: t1/2 (values marked *)): 19.2 h
